# Results from ChEMBL document CHEMBL4382254, “Design, synthesis, structure-activity relationships and mechanism of action of new quinoline derivatives as potential antitumor agents” (Eur J Med Chem, 2019).
# Activity calls are given as the source filed them. The calls are words filed in the database; no cut-off is given here.
# What was measured:
# HCT-116 [1] = experiment: Induction of apoptosis in human HCT116 cells assessed as change in P53 expression at 2.5 to 20 uM after 24 hrs by immunoblot analysis; format: functional, cell-based
# HCT-116 [2] = experiment: Cell cycle arrest in human HCT116 cells assessed as accumulation at G2/M phase at 5 uM after 48 hrs by propidium iodide staining based flow cytometry (reference value: 11.24%); format: functional
# HCT-116 [3] = experiment: Induction of apoptosis in P53-deficient human HCT116 cells assessed as increase in PUMA expression at 2.5 to 20 uM after 24 hrs by immunoblot analysis; format: functional, cell-based
# [4] = molecular target: Cellular tumor antigen p53 (Homo sapiens) (UniProt P04637); experiment: Induction of P53 translocation to nucleus in human HCT116 cells measured after 15 to 90 mins by immunoblot analysis; format: cell-based
# Cellular tumor antigen p53 (Homo sapiens), sequence (P04637 whole entry, looked up): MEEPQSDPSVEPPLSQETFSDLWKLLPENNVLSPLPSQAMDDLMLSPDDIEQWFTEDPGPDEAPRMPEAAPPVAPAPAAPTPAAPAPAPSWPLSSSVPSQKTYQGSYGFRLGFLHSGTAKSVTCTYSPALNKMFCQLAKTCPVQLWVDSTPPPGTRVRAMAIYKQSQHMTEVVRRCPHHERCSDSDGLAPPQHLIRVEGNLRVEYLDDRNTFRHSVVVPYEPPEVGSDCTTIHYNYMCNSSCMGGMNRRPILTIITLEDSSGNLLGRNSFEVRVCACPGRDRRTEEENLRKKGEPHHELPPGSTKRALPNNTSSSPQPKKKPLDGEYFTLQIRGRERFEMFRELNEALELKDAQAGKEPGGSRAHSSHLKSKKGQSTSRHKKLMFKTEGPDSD
# [5] = molecular target: Cellular tumor antigen p53 (Homo sapiens) (UniProt P04637); experiment: Induction of P53 phosphorylation at Ser392 residue in human HCT116 cells after 15 to 90 mins by immunoblot analysis; format: cell-based
# HCT-116 [6] = experiment: Induction of apoptosis in human HCT116 cells assessed as decrease in pro-caspase3 level at 2.5 to 10 uM after 24 hrs by immunoblot analysis; format: functional, cell-based
# HCT-116 [7] = experiment: Induction of apoptosis in P53-deficient human HCT116 cells assessed as decrease in PARP expression at 2.5 to 20 uM after 24 hrs by immunoblot analysis; format: functional, cell-based
# HCT-116 [8] = experiment: Induction of autophagy in human HCT116 cells expressing GFP-LC3 assessed as increase in LC3 puncta formation at 10 uM after 24 hrs by fluorescence microscopic analysis; format: functional, cell-based
# HCT-116 [9] = experiment: Induction of apoptosis in human HCT116 cells assessed as viable cells at 2.5 to 5 uM after 24 hrs in presence of pan-caspase inhibitor z-VAD-FMK by Annexin V-FITC/propidium iodide staining based flow cytometry (reference value: 88.08%); format: functional
# RKO [10] = experiment: Cytotoxicity against human RKO cells assessed as reduction in cell viability at 5 uM incubated for 24 hrs followed by compound washout by CCK8 assay; format: functional, cell-based; conditions: TDE = time-dependent effect
# HCT-116 [11] = experiment: Induction of apoptosis in P53-deficient human HCT116 cells assessed as viable cells at 5 uM after 24 hrs by Annexin V-FITC/propidium iodide staining based flow cytometry (reference value: 75.5%); format: functional; conditions: HCT-116, 24 h, read-out: Activity
# DLD-1 [12] = experiment: Cytotoxicity against human DLD1 cells after 48 hrs by MTT assay; format: functional, cell-based; conditions: DLD-1, 48 h
# HCT-116 [13] = experiment: Induction of apoptosis in P53-deficient human HCT116 cells assessed as early apoptotic cells at 5 uM after 24 hrs by Annexin V-FITC/propidium iodide staining based flow cytometry (reference value: 5.96%); format: functional
# [14] = molecular target: Cellular tumor antigen p53 (Homo sapiens) (UniProt P04637); experiment: Activation of P53 in human HCT116 cells assessed as decrease in PARP expression at 2.5 to 20 uM after 24 hrs by immunoblot analysis; format: cell-based
# HCT-116 [15] = experiment: Induction of apoptosis in human HCT116 cells assessed as increase in cleaved PARP level after 24 hrs in presence of pan-caspase inhibitor z-VAD-FMK by immunoblot analysis; format: functional, cell-based
# DLD-1 [16] = experiment: Inhibition of colony formation in human DLD1 cells after 24 hrs by crystal violet staining based assay; format: functional, cell-based
# HCT-116 [17] = experiment: Cell cycle arrest in human HCT116 cells assessed as accumulation at S phase at 5 uM after 48 hrs by propidium iodide staining based flow cytometry (reference value: 6.79%); format: functional
# FHC = experiment: Cytotoxicity against human FHC cells assessed as reduction in cell viability at 5 uM incubated for 24 hrs by CCK8 assay; format: cell-based
# HCT-116 [18] = experiment: Cell cycle arrest in human HCT116 cells assessed as accumulation at S phase at 5 uM after 24 hrs by propidium iodide staining based flow cytometry (reference value: 5.55%); format: functional
# HCT-116 [19] = experiment: Cell cycle arrest in human HCT116 cells assessed as accumulation at G0/G1 phase at 5 uM after 24 hrs by propidium iodide staining based flow cytometry (reference value: 77.78%); format: functional
# HCT-116 [20] = experiment: Induction of apoptosis in Bax-deficient human HCT116 cells assessed as necrotic cells at 5 uM after 24 hrs by Annexin V-FITC/propidium iodide staining based flow cytometry (reference value: 6.74%); format: functional
# HCT-116 [21] = experiment: Induction of apoptosis in human HCT116 cells assessed as viable cells at 2.5 uM after 24 hrs by Annexin V-FITC/propidium iodide staining based flow cytometry (reference value: 87.19%); format: functional; conditions: HCT-116, 24 h, read-out: Activity
# HCT-116 [22] = experiment: Inhibition of colony formation in Bax-deficient human HCT116 cells after 24 hrs by crystal violet staining based assay; format: functional, cell-based
# SK-OV-3 = experiment: Cytotoxicity against human SKOV3 cells after 48 hrs by MTT assay; format: functional, cell-based; conditions: SK-OV-3, 48 h
# HCT-116 [23] = experiment: Induction of apoptosis in P53-deficient human HCT116 cells assessed as increase in p21 expression at 2.5 to 20 uM after 24 hrs by immunoblot analysis; format: functional, cell-based
# RKO [24] = experiment: Induction of morphological changes in human RKO cells assessed as cell shrinkage at 5 to 10 uM after 24 hrs by phase contrast microscopic analysis; format: functional, cell-based
# HCT-116 [25] = experiment: Cell cycle arrest in human HCT116 cells assessed as accumulation at G0/G1 phase at 5 uM after 48 hrs by propidium iodide staining based flow cytometry (reference value: 82.16%); format: functional
# HCT-116 [26] = experiment: Cytotoxicity against Bax-deficient human HCT116 cells assessed as reduction in cell viability measured after 24 hrs by CCK8 assay; format: functional, cell-based; conditions: HCT-116, 24 h
# HCT-116 [27] = experiment: Induction of apoptosis in human HCT116 cells assessed as necrotic cells at 5 uM after 24 hrs by Annexin V-FITC/propidium iodide staining based flow cytometry (reference value: 3.46 to 9.31%); format: functional
# HCT-116 [28] = experiment: Induction of apoptosis in human HCT116 cells assessed as decrease in pro-caspase9 level at 2.5 to 10 uM after 24 hrs by immunoblot analysis; format: functional, cell-based
# HCT-116 [29] = experiment: Induction of apoptosis in human HCT116 cells assessed as increase in early apoptotic cells after 24 hrs by Annexin V-FITC/propidium iodide staining based flow cytometry; format: functional, cell-based
# HCT-116 [30] = experiment: Anticancer activity against human HCT116 cells xenografted in […] mouse assessed as tumor growth inhibition at 80 mg/kg administered once every 3 days for 21 days; format: functional, organism-based
# RKO [31] = experiment: Induction of morphological changes in human RKO cells assessed as reduction in cell number at 5 to 10 uM after 24 hrs by phase contrast microscopic analysis; format: functional, cell-based
# HCT-116 [32] = experiment: Induction of apoptosis in human HCT116 cells assessed as early apoptotic cells at 2.5 uM after 24 hrs by Annexin V-FITC/propidium iodide staining based flow cytometry (reference value: 3.32%); format: functional
# HCT-116 [33] = experiment: Induction of apoptosis in P53-deficient human HCT116 cells assessed as late apoptotic cells at 5 uM after 24 hrs by Annexin V-FITC/propidium iodide staining based flow cytometry (reference value: 34.09%); format: functional
# HCT-116 [34] = experiment: Induction of apoptosis in human HCT116 cells assessed as increase in late apoptotic cells after 24 hrs by Annexin V-FITC/propidium iodide staining based flow cytometry; format: functional, cell-based
# DLD-1 [35] = experiment: Cytotoxicity against human DLD1 cells assessed as reduction in cell viability at 5 uM incubated for 24 hrs followed by compound washout by CCK8 assay; format: functional, cell-based; conditions: TDE = time-dependent effect
smiles,measurement,setting,value
CN(C)CCNc1ccnc2cc(OCc3ccc(F)cc3)ccc12,Activity,HCT-116 [1],inactive
same,Activity,HCT-116 [2],8.88%
same,Activity,HCT-116 [3],inactive
same,Activity,[4],Active
same,Activity,[5],Active
same,Activity,HCT-116 [6],Active
same,Activity,HCT-116 [7],inactive
same,Activity,HCT-116 [8],inactive
same,Activity,HCT-116 [9],84.15%
same,Activity,RKO [10],Tde
same,viability at 5 µM,HCT-116 [11],76.3%
same,IC50,DLD-1 [12],810 nM
same,Activity,HCT-116 [13],5.29%
same,Activity,[14],Active
same,Activity,HCT-116 [15],inactive
same,inhibition,DLD-1 [16],Dose-dependent effect
same,Activity,HCT-116 [17],7.61%
same,Activity,FHC,Non-Toxic
same,Activity,HCT-116 [18],4.38%
same,Activity,HCT-116 [19],82.21%
same,Activity,HCT-116 [20],1.24%
same,viability at 2.5 µM,HCT-116 [21],78.1%
same,inhibition,HCT-116 [22],inactive
same,IC50,SK-OV-3,890 nM
same,Activity,HCT-116 [23],inactive
same,Activity,RKO [24],Active
same,Activity,HCT-116 [25],83.72%
same,IC50,HCT-116 [26],31100 nM
same,Activity,HCT-116 [27],9.3 - 10.45%
same,Activity,HCT-116 [28],Active
same,Activity,HCT-116 [29],Dose-dependent effect
same,TGI,HCT-116 [30],Active
same,Activity,RKO [31],Active
same,Activity,HCT-116 [32],4.94%
same,Activity,HCT-116 [33],14.05%
same,Activity,HCT-116 [34],Dose-dependent effect
same,Activity,DLD-1 [35],Tde
